Results published in PubChem BioAssay AID272 (DTP/NCI, 2004).
Values joined by “and” are separate entries in the source; they are usually repeats but may differ in a detail not shown here. Equal values may be shown once. Inconclusive results are not listed.

Tested on: Lewis lung carcinoma i.m., BDF1 mice, T/C %
Assay: NCI In Vivo Anticancer Drug Screen. Data for tumor model Lewis Lung Carcinoma (intramuscular) in B6D2F1 (BDF1) mice
Method: The antitumor activity of compounds was measured in mice bearing transplantable tumors. Survival or tumor size were measured and the results are expressed as the measurement made in the treated group (T) divided by the measurement made in the vehicle treated control group (C). The tumor model used in this assay is Lewis Lung Carcinoma (intramuscular) in B6D2F1 (BDF1) mice

[1] = endpoint: mean tumor weight (est.), dose: 150.0 mg/kg/injection, schedule: Q01DX011 (ip), vehicle: saline with Tween-80, higher = larger tumour
[2] = endpoint: mean tumor weight (est.), dose: 300.0 mg/kg/injection, schedule: Q01DX011 (ip), vehicle: saline with Tween-80, higher = larger tumour
[3] = endpoint: median survival time, dose: 150.0 mg/kg/injection, schedule: Q01DX011 (ip), vehicle: saline with Tween-80, higher = longer survival
[4] = endpoint: median survival time, dose: 300.0 mg/kg/injection, schedule: Q01DX011 (ip), vehicle: saline with Tween-80, higher = longer survival

O=C(O)C1CSCN1 (configuration not stated)
T/C (endpoint: median survival time, dose: 12.5 mg/kg/injection, schedule: Q01DX011 (ip), vehicle: saline, higher = longer survival): 118 % of control | T/C (endpoint: median survival time, dose: 25.0 mg/kg/injection, schedule: Q01DX011 (ip), vehicle: saline, higher = longer survival): 105 % of control | T/C (endpoint: median survival time, dose: 50.0 mg/kg/injection, schedule: Q01DX011 (ip), vehicle: saline, higher = longer survival): 97 % of control | T/C (endpoint: median survival time, dose: 100.0 mg/kg/injection, schedule: Q01DX011 (ip), vehicle: saline, higher = longer survival): 105 % of control

N=[N+]=CC(=O)CCC(NC(=O)C(CCC(=O)C=[N+]=N)NC(=O)CCC(N)C(=O)O)C(=O)O (configuration not stated)
T/C (endpoint: mean tumor weight, dose: 7.5 micrograms/kg/injection, schedule: Q01DX011 (ip), vehicle: water, higher = larger tumour): 63 % of control | T/C (endpoint: mean tumor weight, dose: 15.0 micrograms/kg/injection, schedule: Q01DX011 (ip), vehicle: water, higher = larger tumour): 66 % of control | T/C (endpoint: mean tumor weight, dose: 30.0 micrograms/kg/injection, schedule: Q01DX011 (ip), vehicle: water, higher = larger tumour): 60 % of control | T/C (endpoint: mean tumor weight, dose: 60.0 micrograms/kg/injection, schedule: Q01DX011 (ip), vehicle: water, higher = larger tumour): 63 % of control | T/C (endpoint: median survival time, dose: 0.1 mg/kg/injection, schedule: Q01DX011 (ip), vehicle: saline, higher = longer survival): 88 % of control and 101 % of control | T/C (endpoint: median survival time, dose: 0.2 mg/kg/injection, schedule: Q01DX011 (ip), vehicle: saline, higher = longer survival): 106 % of control | T/C (endpoint: median survival time, dose: 0.4 mg/kg/injection, schedule: Q01DX011 (ip), vehicle: saline, higher = longer survival): 101 % of control and 103 % of control | T/C (endpoint: median survival time, dose: 0.8 mg/kg/injection, schedule: Q01DX011 (ip), vehicle: saline, higher = longer survival): 87 % of control | T/C (endpoint: median survival time, dose: 1.6 mg/kg/injection, schedule: Q01DX011 (ip), vehicle: saline, higher = longer survival): 87 % of control | T/C (endpoint: median survival time, dose: 7.5 micrograms/kg/injection, schedule: Q01DX011 (ip), vehicle: water, higher = longer survival): 104 % of control | T/C (endpoint: median survival time, dose: 12.5 micrograms/kg/injection, schedule: Q01DX009 (ip), vehicle: Klucel (hydroxypropylcellulose) (HPC), higher = longer survival): 97 % of control | T/C (endpoint: median survival time, dose: 15.0 micrograms/kg/injection, schedule: Q01DX011 (ip), vehicle: water, higher = longer survival): 106 % of control | T/C (endpoint: median survival time, dose: 25.0 micrograms/kg/injection, schedule: Q01DX009 (ip), vehicle: Klucel (hydroxypropylcellulose) (HPC), higher = longer survival): 98 % of control | T/C (endpoint: median survival time, dose: 30.0 micrograms/kg/injection, schedule: Q01DX011 (ip), vehicle: water, higher = longer survival): 97 % of control | T/C (endpoint: median survival time, dose: 50.0 micrograms/kg/injection, schedule: Q01DX009 (ip), vehicle: Klucel (hydroxypropylcellulose) (HPC), higher = longer survival): 90 % of control | T/C (endpoint: median survival time, dose: 60.0 micrograms/kg/injection, schedule: Q01DX011 (ip), vehicle: water, higher = longer survival): 102 % of control | T/C (endpoint: median survival time, dose: 100.0 micrograms/kg/injection, schedule: Q01DX009 (ip), vehicle: Klucel (hydroxypropylcellulose) (HPC), higher = longer survival): 98 % of control

O=C(CCCl)N1CCN(C(=O)CCCl)c2ccccc21
T/C [1]: 83 % of control | T/C [2]: 82 % of control | T/C [3]: 108 % of control | T/C [4]: 93 % of control

COc1cc2c3c(c4ccc(OC)c(OC)c4c2cc1OC)CN1CCC[C@@H]1C3
T/C (endpoint: mean tumor weight, dose: 1.0 mg/kg/injection, schedule: Q01DX011 (ip), vehicle: Klucel (hydroxypropylcellulose) (HPC), higher = larger tumour): 88 % of control and 93 % of control | T/C (endpoint: mean tumor weight, dose: 2.0 mg/kg/injection, schedule: Q01DX011 (ip), vehicle: Klucel (hydroxypropylcellulose) (HPC), higher = larger tumour): 69 % of control and 77 % of control | T/C (endpoint: mean tumor weight, dose: 4.0 mg/kg/injection, schedule: Q01DX011 (ip), vehicle: Klucel (hydroxypropylcellulose) (HPC), higher = larger tumour): 85 % of control and 89 % of control | T/C (endpoint: mean tumor weight, dose: 8.0 mg/kg/injection, schedule: Q01DX011 (ip), vehicle: Klucel (hydroxypropylcellulose) (HPC), higher = larger tumour): 64 % of control and 73 % of control | T/C (endpoint: mean tumor weight, dose: 16.0 mg/kg/injection, schedule: Q01DX011 (ip), vehicle: Klucel (hydroxypropylcellulose) (HPC), higher = larger tumour): 41 % of control | T/C (endpoint: median survival time, dose: 1.0 mg/kg/injection, schedule: Q01DX011 (ip), vehicle: Klucel (hydroxypropylcellulose) (HPC), higher = longer survival): 102 % of control | T/C (endpoint: median survival time, dose: 2.0 mg/kg/injection, schedule: Q01DX011 (ip), vehicle: Klucel (hydroxypropylcellulose) (HPC), higher = longer survival): 86 % of control | T/C (endpoint: median survival time, dose: 4.0 mg/kg/injection, schedule: Q01DX011 (ip), vehicle: Klucel (hydroxypropylcellulose) (HPC), higher = longer survival): 114 % of control | T/C (endpoint: median survival time, dose: 8.0 mg/kg/injection, schedule: Q01DX011 (ip), vehicle: Klucel (hydroxypropylcellulose) (HPC), higher = longer survival): 100 % of control

CN(Cc1cnc2nc(N)nc(N)c2n1)c1ccc(C(=O)N[C@@H](CCC(=O)O)C(=O)O)cc1
T/C (endpoint: mean tumor weight, dose: 0.23 mg/kg/injection, schedule: Q01DX009 (ip), vehicle: sodium bicarbonate, higher = larger tumour): 107 % of control | T/C (endpoint: mean tumor weight, dose: 0.31 mg/kg/injection, schedule: Q01DX011 (ip), vehicle: other, higher = larger tumour): 86 % of control and 100 % of control and 109 % of control | T/C (endpoint: mean tumor weight, dose: 0.39 mg/kg/injection, schedule: Q01DX009 (ip), vehicle: sodium bicarbonate, higher = larger tumour): 71 % of control | T/C (endpoint: mean tumor weight, dose: 0.65 mg/kg/injection, schedule: Q01DX009 (ip), vehicle: sodium bicarbonate, higher = larger tumour): 48 % of control and 69 % of control | T/C (endpoint: mean tumor weight, dose: 1.08 mg/kg/injection, schedule: Q01DX009 (ip), vehicle: sodium bicarbonate, higher = larger tumour): 53 % of control and 59 % of control | T/C (endpoint: mean tumor weight, dose: 1.8 mg/kg/injection, schedule: Q01DX009 (ip), vehicle: sodium bicarbonate, higher = larger tumour): 40 % of control and 44 % of control | T/C (endpoint: mean tumor weight, dose: 2.5 mg/kg/injection, schedule: Q01DX011 (ip), vehicle: other, higher = larger tumour): 94 % of control | T/C (endpoint: mean tumor weight, dose: 23.0 mg/kg/injection, schedule: Q04DX003 (ip), vehicle: sodium bicarbonate, higher = larger tumour): 57 % of control | T/C (endpoint: mean tumor weight, dose: 39.0 mg/kg/injection, schedule: Q04DX003 (ip), vehicle: sodium bicarbonate, higher = larger tumour): 33 % of control | T/C (endpoint: mean tumor weight, dose: 65.0 mg/kg/injection, schedule: Q04DX003 (ip), vehicle: sodium bicarbonate, higher = larger tumour): 13 % of control | T/C (endpoint: median survival time, dose: 0.12 mg/kg/injection, schedule: Q01DX011 (ip), vehicle: sodium bicarbonate, higher = longer survival): 123 % of control | T/C (endpoint: median survival time, dose: 0.23 mg/kg/injection, schedule: Q01DX009 (ip), vehicle: sodium bicarbonate, higher = longer survival): 90 % of control and 93 % of control | T/C (endpoint: median survival time, dose: 0.25 mg/kg/injection, schedule: Q01DX011 (ip), vehicle: sodium bicarbonate, higher = longer survival): 112 % of control and 122 % of control | T/C (endpoint: median survival time, dose: 0.39 mg/kg/injection, schedule: Q01DX009 (ip), vehicle: sodium bicarbonate, higher = longer survival): 118 % of control and 121 % of control | T/C (endpoint: median survival time, dose: 0.5 mg/kg/injection, schedule: Q01DX011 (ip), vehicle: sodium bicarbonate, higher = longer survival): 108 % of control and 109 % of control | T/C (endpoint: median survival time, dose: 1.0 mg/kg/injection, schedule: Q01DX011 (ip), vehicle: sodium bicarbonate, higher = longer survival): 107 % of control | T/C (endpoint: median survival time, dose: 2.0 mg/kg/injection, schedule: Q01DX011 (ip), vehicle: sodium bicarbonate, higher = longer survival): 121 % of control | T/C (endpoint: median survival time, dose: 3.0 mg/kg/injection, schedule: Q01DX009 (ip), vehicle: sodium bicarbonate, higher = longer survival): 32 % of control | T/C (endpoint: median survival time, dose: 14.0 mg/kg/injection, schedule: Q04DX003 (ip), vehicle: sodium bicarbonate, higher = longer survival): 89 % of control | T/C (endpoint: median survival time, dose: 23.0 mg/kg/injection, schedule: Q04DX003 (ip), vehicle: sodium bicarbonate, higher = longer survival): 90 % of control and 98 % of control | T/C (endpoint: median survival time, dose: 39.0 mg/kg/injection, schedule: Q04DX003 (ip), vehicle: sodium bicarbonate, higher = longer survival): 100 % of control and 112 % of control | T/C (endpoint: median survival time, dose: 65.0 mg/kg/injection, schedule: Q04DX003 (ip), vehicle: sodium bicarbonate, higher = longer survival): 34 % of control and 112 % of control

CCn1cnc2c(=S)nc[nH]c21
T/C (endpoint: mean tumor weight (est.), dose: 25.0 mg/kg/injection, schedule: Q01DX011 (ip), vehicle: Klucel (hydroxypropylcellulose) (HPC), higher = larger tumour): 110 % of control | T/C (endpoint: mean tumor weight, dose: 1.56 mg/kg/injection, schedule: Q01DX011 (ip), vehicle: steriod suspending solution, higher = larger tumour): 81 % of control | T/C (endpoint: mean tumor weight, dose: 6.25 mg/kg/injection, schedule: Q01DX011 (ip), vehicle: steriod suspending solution, higher = larger tumour): 86 % of control | T/C (endpoint: median survival time, dose: 0.78 mg/kg/injection, schedule: Q01DX011 (ip), vehicle: Klucel (hydroxypropylcellulose) (HPC), higher = longer survival): 100 % of control | T/C (endpoint: median survival time, dose: 1.56 mg/kg/injection, schedule: Q01DX011 (ip), vehicle: Klucel (hydroxypropylcellulose) (HPC), higher = longer survival): 104 % of control | T/C (endpoint: median survival time, dose: 3.12 mg/kg/injection, schedule: Q01DX011 (ip), vehicle: Klucel (hydroxypropylcellulose) (HPC), higher = longer survival): 106 % of control | T/C (endpoint: median survival time, dose: 6.25 mg/kg/injection, schedule: Q01DX011 (ip), vehicle: Klucel (hydroxypropylcellulose) (HPC), higher = longer survival): 102 % of control and 108 % of control | T/C (endpoint: median survival time, dose: 12.5 mg/kg/injection, schedule: Q01DX011 (ip), vehicle: Klucel (hydroxypropylcellulose) (HPC), higher = longer survival): 106 % of control | T/C (endpoint: median survival time, dose: 25.0 mg/kg/injection, schedule: Q01DX011 (ip), vehicle: Klucel (hydroxypropylcellulose) (HPC), higher = longer survival): 95 % of control and 104 % of control

Cc1c2c(cc3c1[nH]c1ccccc13)C(c1ccc(Cl)cc1)=NCC2
T/C (endpoint: mean tumor weight (est.), dose: 75.0 mg/kg/injection, schedule: Q01DX011 (ip), vehicle: saline with Tween-80, higher = larger tumour): 54 % of control | T/C [1]: 41 % of control | T/C [2]: 40 % of control | T/C (endpoint: median survival time, dose: 75.0 mg/kg/injection, schedule: Q01DX011 (ip), vehicle: saline with Tween-80, higher = longer survival): 100 % of control | T/C [3]: 92 % of control | T/C [4]: 111 % of control

CN1Cc2c(ccc3c2OCO3)[C@@H]2[C@H](O)Cc3cc4c(cc3[C@@H]21)OCO4
T/C (endpoint: mean tumor weight, dose: 62.5 mg/kg/injection, schedule: Q01DX011 (ip), vehicle: saline, higher = larger tumour): 75 % of control | T/C (endpoint: mean tumor weight, dose: 125.0 mg/kg/injection, schedule: Q01DX011 (ip), vehicle: saline, higher = larger tumour): 47 % of control | T/C (endpoint: mean tumor weight, dose: 500.0 mg/kg/injection, schedule: Q01DX011 (ip), vehicle: saline, higher = larger tumour): 32 % of control | T/C (endpoint: median survival time, dose: 62.5 mg/kg/injection, schedule: Q01DX011 (ip), vehicle: saline, higher = longer survival): 91 % of control | T/C (endpoint: median survival time, dose: 125.0 mg/kg/injection, schedule: Q01DX011 (ip), vehicle: saline, higher = longer survival): 95 % of control | T/C (endpoint: median survival time, dose: 500.0 mg/kg/injection, schedule: Q01DX011 (ip), vehicle: saline, higher = longer survival): 93 % of control
